MIC data for seven compounds are collected here from DBAASP.

The structures appear in SMILES notation. Converted amounts (≈) assume the structure as drawn. “And” between values parts separate entries of the source, which are not always exact repeats. Identical values can stand only once.

Some test systems named below: Serratia marcescens; Candida albicans SC5314; Klebsiella pneumoniae; Escherichia coli O157:H7; Candida krusei IFN 5462; Listeria ivanovii LMA 94.
Common to all, as to assay: ≥ marks a high value that may be exact or a test limit, other limits are often not marked, values filed in µg/mL are converted to µM
The subject of experiment [1] is Candida albicans ATCC 10261.
Experiment [2] deals with Yersinia enterocolitica O:9 96-C.
Experiment [3] concerns Pseudomonas aeruginosa ATCC 27853.
In experiment [4] the test system is Staphylococcus aureus NCTC 8325.
In experiment [5] the test system is Staphylococcus aureus CIB 85462.
For experiment [6], the system named is Candida albicans ATCC 90028.
The subject of experiment [7] is Escherichia coli ATCC 25922.
Experiment [8] concerns Staphylococcus aureus ATCC 25923.
Experiment [9] concerns Candida albicans CIB 45437.
Experiment [10] concerns Escherichia coli CIB 84492.
Experiment [11] relates to Staphylococcus aureus 1056.
Experiment [12] deals with Escherichia coli D31 CGSC 5165.
Experiment [13] concerns Escherichia coli DH5alpha.
In experiment [14] the test system is Bacillus thuringiensis serovar israelensis.
Experiment [15] relates to Candida glabrata ATCC 2001.
The test system of experiment [16] is Ureaplasma urealyticum strain 2.
Experiment [17] relates to Ureaplasma urealyticum strain 1.
For experiment [18], the system named is Candida glabrata IFM 46861.
For experiment [19], the system named is Candida tropicalis IFM 46862.
For experiment [20], the system named is Staphylococcus aureus CIP 677.
Experiment [21] deals with Lactococcus lactis subsp. cremoris I116.
The test system of experiment [22] is Klebsiella pneumoniae CIP 8291.

Take `CC[C@H](C)[C@H](NC(=O)[C@H](C)NC(=O)[C@@H](NC(=O)[C@H](Cc1cnc[nH]1)NC(=O)[C@@H]1CCCN1C(=O)[C@H](CC(C)C)NC(=O)[C@@H](NC(=O)[C@H](C)NC(=O)[C@H](CCCN=C(N)N)NC(=O)CNC(=O)[C@@H](NC(=O)[C@H](CCCN=C(N)N)NC(=O)[C@H](C)NC(=O)[C@@H](NC(=O)[C@@H](NC(=O)[C@H](CCCN=C(N)N)NC(=O)[C@@H](NC(=O)[C@H](C)NC(=O)[C@H](CO)NC(=O)[C@H](CCCN=C(N)N)NC(=O)[C@H](CC(C)C)NC(=O)[C@H](C)N)C(C)C)[C@@H](C)O)C(C)C)C(C)C)C(C)C)C(C)C)C(N)=O` [ALRSAVRTVARVGRAVLPHVAI]: the MIC against Serratia marcescens was 25 µM (≈ 57.8 µg/mL); in [1], 6.3 µM and 3.1 µM; in the experiment on Candida albicans SC5314, 6.3 µM and 3.1 µM; in [2], 3.1 µM and 1.6 µM; in experiment [3], 12.5 µM and 6.3 µM; in the experiment with Klebsiella pneumoniae it was > 25 µM and 12.5 µM.

`CC(C)C[C@H](NC(=O)CN)C(=O)N[C@@H](CC(C)C)C(=O)N[C@@H](CC(=O)O)C(=O)N[C@H](C(=O)N[C@@H](Cc1ccccc1)C(=O)N[C@@H](CCCCN)C(=O)N[C@@H](CC(N)=O)C(=O)N[C@@H](CC(C)C)C(=O)N[C@@H](C)C(=O)N[C@@H](CC(C)C)C(=O)N[C@@H](CC(N)=O)C(=O)N[C@@H](C)C(=O)N[C@@H](C)C(=O)N[C@@H](CCCCN)C(=O)N[C@@H](CO)C(=O)N[C@@H](C)C(=O)NCC(=O)N[C@H](C(=O)N[C@@H](CO)C(=O)N[C@H](C(=O)N[C@@H](CC(C)C)C(=O)N[C@@H](CC(N)=O)C(=O)N[C@@H](CO)C(=O)N[C@@H](CC(C)C)C(=O)N[C@@H](CO)C(=O)N[C@H]1CSSC[C@@H](C(=O)O)NC(=O)[C@H]([C@@H](C)O)NC(=O)[C@H](CCCCN)NC(=O)[C@H](CO)NC(=O)[C@H](CC(C)C)NC(=O)[C@H](CCCCN)NC1=O)C(C)C)C(C)C)[C@@H](C)O` [GLLDTFKNLALNAAKSAGVSVLNSLSCKLSKTC]: the MIC in experiment [4] is no less than 50 µM; in [5], 19 µM (≈ 64 µg/mL); in experiment [6] it was no less than 100 µM; in experiment [7], 12.5 µM (≈ 42.1 µg/mL); in experiment [8], 19 µM (≈ 64 µg/mL); in [9] it was 19 µM (≈ 64 µg/mL). Besides, the minimal inhibitory concentration (MIC) in [10] was no less than 38 µM.

Take `CC[C@H](C)[C@H](N)C(=O)N1CCC[C@H]1C(=O)N[C@@H](CCCN=C(N)N)C(=O)N1CCC[C@H]1C(=O)N[C@@H](CC(C)C)C(=O)N[C@@H](CC(=O)O)C(=O)N1CCC[C@H]1C(=O)N[C@H]1CSSC[C@@H]2NC(=O)[C@H](CO)NC(=O)[C@H](CCCCN)NC(=O)CNC(=O)[C@H](CC(N)=O)NC(=O)[C@H](CCCN=C(N)N)NC(=O)[C@@H]3CSSC[C@H](NC(=O)[C@H](CCCN=C(N)N)NC(=O)CNC(=O)[C@H](CC(N)=O)NC(=O)[C@H](CCC(N)=O)NC(=O)[C@H](C)NC(=O)[C@H]([C@@H](C)CC)NC1=O)C(=O)N[C@@H](Cc1ccccc1)C(=O)N[C@@H]([C@@H](C)O)C(=O)NCC(=O)N[C@@H]([C@@H](C)CC)C(=O)N[C@@H](CSSC[C@@H](C(=O)N[C@@H](CCCN=C(N)N)C(=O)N[C@@H](CCCN=C(N)N)C(=O)N[C@@H](CCCN=C(N)N)C(=O)O)NC2=O)C(=O)N[C@@H](CCCN=C(N)N)C(=O)N[C@@H](Cc1ccc(O)cc1)C(=O)N1CCC[C@H]1C(=O)N[C@@H](Cc1ccc(O)cc1)C(=O)N[C@@H](Cc1ccccc1)C(=O)N[C@@H](Cc1c[nH]c2ccccc12)C(=O)N[C@@H]([C@@H](C)CC)C(=O)NCC(=O)N[C@@H]([C@@H](C)O)C(=O)N3` [IPRPLDPCIAQNGRCFTGICRYPYFWIGTCRNGKSCCRRR]: the MIC in the experiment with Escherichia coli O157:H7 is 0.515 µM (≈ 2.41 µg/mL); in [11] it was 0.594 µM (≈ 2.78 µg/mL).

Turning to `CC[C@H](C)[C@H](NC(=O)[C@H](Cc1ccccc1)NC(=O)[C@H](CCCCN)NC(=O)[C@H](C)NC(=O)[C@@H](NC(=O)[C@H](CO)NC(=O)[C@H](CCCCN)NC(=O)[C@H](CCSC)NC(=O)[C@@H](NC(=O)[C@H](CCCCN)NC(=O)[C@H](Cc1ccccc1)NC(=O)[C@H](Cc1c[nH]c2ccccc12)NC(=O)[C@H](CCCCN)NC(=O)[C@@H](NC(=O)[C@@H](N)CCCCN)[C@@H](C)CC)[C@@H](C)O)[C@@H](C)CC)C(=O)N[C@@H](C)C(=O)N[C@@H](CCCCN)C(=O)N[C@@H](CCC(=O)O)C(=O)N[C@@H](CCC(N)=O)C(=O)N[C@@H](CCSC)C(=O)N[C@@H](CCCCN)C(=O)N[C@@H](CCCCN)C(=O)N[C@@H](Cc1cnc[nH]1)C(=O)N[C@@H](CC(C)C)C(=O)NCC(=O)NCC(=O)N[C@@H](CCC(=O)O)C(=O)O` [KIKWFKTMKSIAKFIAKEQMKKHLGGE], the MIC in [12] was 10 µM (≈ 32.1 µg/mL); in experiment [13], no less than 40 µM; in experiment [14], 24.5 µM (≈ 78.6 µg/mL); in experiment [15], no less than 122 µM.

With `CC[C@H](C)[C@H](NC(=O)[C@H](CCSC)NC(=O)[C@H](CC(=O)O)NC(=O)[C@@H](NC(=O)[C@H](CCSC)NC(=O)[C@H](Cc1ccccc1)NC(=O)[C@H](CC(N)=O)NC(=O)[C@H](Cc1ccccc1)NC(=O)CNC(=O)[C@H](CCCCN)NC(=O)[C@H](CC(N)=O)NC(=O)[C@H](CO)NC(=O)[C@@H](N)CCCN=C(N)N)C(C)C)C(=O)N[C@@H](CCC(N)=O)C(=O)N[C@@H](C)C(=O)N[C@@H](CC(C)C)C(=O)N[C@@H](CO)C(=O)N[C@@H](CCCCN)C(N)=O` [RSNKGFNFMVDMIQALSK], the MIC in experiment [16] and in [17] was no less than 46 µM throughout.

On to `CC(C)[C@H](N)C(=O)N[C@@H](CO)C(=O)N[C@@H](CCCN=C(N)N)C(=O)N[C@@H](CCCN=C(N)N)C(=O)N[C@@H](CCCN=C(N)N)C(=O)N[C@@H](CCCN=C(N)N)C(=O)N[C@@H](CCCN=C(N)N)C(=O)N[C@@H](CCCN=C(N)N)C(=O)NCC(=O)NCC(=O)N[C@@H](CCCN=C(N)N)C(=O)N[C@@H](CCCN=C(N)N)C(=O)N[C@@H](CCCN=C(N)N)C(=O)N[C@@H](CCCN=C(N)N)C(=O)O` [VSRRRRRRGGRRRR], for which the MIC in the experiment on Candida albicans SC5314 is 1.6 µM and 2.5 µM; in [18], 2.5 µM (≈ 4.7 µg/mL); in experiment [19], 2.5 µM (≈ 4.7 µg/mL); in the experiment with Candida krusei IFN 5462, 2.5 µM (≈ 4.7 µg/mL).

On to `CC[C@H](C)[C@H](NC(=O)[C@H](CCCCN)NC(=O)[C@H](CC(C)C)NC(=O)[C@H](C)NC(=O)[C@H](CO)NC(=O)CNC(=O)[C@H](CC(C)C)NC(=O)[C@@H](N)Cc1c[nH]c2ccccc12)C(=O)NCC(=O)N[C@@H](C)C(=O)N[C@@H](CCCCN)C(=O)N[C@@H](CC(C)C)C(=O)N[C@@H](CC(C)C)C(=O)N1CCC[C@H]1C(=O)N[C@@H](CO)C(=O)N[C@H](C(=O)N[C@H](C(=O)NCC(=O)N[C@@H](CC(C)C)C(=O)N[C@@H](Cc1ccccc1)C(=O)N[C@@H](CCCCN)C(=O)N[C@@H](CCCCN)C(=O)N[C@@H](CCCCN)C(=O)N[C@@H](CCCCN)C(=O)N[C@@H](CCC(N)=O)C(=O)O)C(C)C)C(C)C` [WLGSALKIGAKLLPSVVGLFKKKKQ], for which the MIC in experiment [20] is 8 µM (≈ 21.7 µg/mL); in [21], 4 µM (≈ 10.8 µg/mL); in experiment [22], no less than 64 µM; in the experiment on Listeria ivanovii LMA 94, 8 µM (≈ 21.7 µg/mL).
